“Also recorded” adds a separate entry of the source.
Legend:
Ch-1 cells [1] = test: Cell adhesion assay (Ch-1 cells on wells coated with recombinant proteins); format: cell-based, human; details: wells coated with recombinant protein
Procedure: Cell Adhesion Assay. Cell adhesion assays were performed using a spectrometric method. A 96-well plate was coated at 4° C. overnight with recombinant proteins. Wells were washed three times with RPMI-1640 medium containing 10% FBS. Ch-1 cells were harvested with limited trypsin digestion and plated at 5×10^4 cells per well in RPMI-1640 medium supplemented with 10% FBS for an hours. Proteins were added and incubation continued for 1 hour. The wells were washed three times with pre-warmed PBS to remove non-adherent cells. The adherent cells were fixed with 4% paraformaldehyde in PBS for 10 minutes at room temperature and stained with 0.5% toluidine blue for 5 minutes. The wells were rinsed with water and cells were solubilized with 0.1% SDS. Absorbance at 595 nm was recorded on a SpectraMax plate reader. Synthetic blocking peptides and antibodies to αVβ3 and αVβ5 integrin were pre-incubated with cells for 15 to 30 mins before they were added onto the wells in the inhibition assays.
Cell Culture. Human Chondrosarcoma cell line (Ch-1) was isolated from a portion of chondrosarcoma tumor (Chansky et al., J Orthop Res. (1998) 16(5):521-30). The Ch-1 cell line was maintained in RPMI-1640 supplemented with 10% FBS and at 37° C. in a humidified, 5% CO2 atmosphere.

αVβ3 integrin = target: T1, αVβ3 integrin (Homo sapiens, UniProt P05106+P06756); test: Cell surface labeling and GST pull-down with immunoblotting; format: binding; details: biotin-labeled Ch-1 membrane proteins, Western blot
T1 construct: Ch-1 membrane proteins were labeled with biotin, and PIIBNP was used to isolate the integrin molecules; endogenous in cells; host or cells: Ch-1 human chondrosarcoma cells (surface-biotinylated, lysed)
Procedure: (§1) Immunoblotting. Western blotting was performed as described (7). Blots were probed with the following primary antibodies: rabbit anti αV, α2, α3, α5, β1, β3, β5 integrin and goat anti actin (Saint Cruz), chicken anti PIIBNP antiserum, and mouse anti exon 2 antiserum.
(§2) Cell Surface labeling and GST Pull-down Assay. Ch-1 cells were incubated with EZ-link Sulfo-NHS-Biotin reagent for 30 mins. according to the product instruction (Sigma). After 3 washes with 0.1 M glycine in PBS, the cells were lysed with a lysis buffer described above. The lysate was incubated with glutathione derivatized agarose beads previously bound with GST, PIIANP, PIIBNP or mPIIBNP for 1 hr. at RT. […] The membrane was washed and incubated with antibodies and then incubated with a secondary antibody coupled to horseradish peroxidase. The antibody complex was visualized by enhanced chemiluminescence.

αVβ5 integrin = target: T2, αVβ5 integrin (Homo sapiens, UniProt P06756+P18084); test: as above; format: binding; details: biotin-labeled Ch-1 membrane proteins, Western blot
T2 construct: Ch-1 membrane proteins were labeled with biotin, and PIIBNP was used to isolate the integrin molecules; endogenous in cells; host or cells: Ch-1 human chondrosarcoma cells (surface-biotinylated, lysed)
Procedure: as §1, §2

Ch-1 cells [2] = test: Detection of cell death in Ch-1 cells; format: cell-based, human; details: 0.8 μM
Procedure: Cell Culture. Human Chondrosarcoma cell line (Ch-1) was isolated from a portion of chondrosarcoma tumor. The Ch-1 cell line was maintained in RPMI-1640 supplemented with 10% FBS and at 37° C. in a humidified, 5% CO2 atmosphere. Human chondrocytes were obtained from Dr. Davis Adkisson (ISTO Technologies, St. Louis) or isolated from macroscopically intact tissue obtained from total joint arthroplasty as described (Bassleer et al., 1998). HeLa 229 cells and MDA-MB 231 cell lines were provided by Dr. Kathy Weilbaecher (Washington University) and were cultured in RPMI medium supplemented with 10% FBS. HUVEC cells were a gift from Dr. William Frazier (Washington University) and were cultured in M199 Earle's medium with 10 units/ml of penicillin, 5 μg/ml streptomycin and 0.25 μg/ml Fungizone supplemented with 10% FBS, 0.1 mg/ml L-glutamine, 25 mM Hepes, 16 units/ml of heparin (Sigma) and 0.1 mg/ml endothelial cell mitogen (Biochemical Technologies).
(§3) Detection of Cell Death. Cells were cultured to confluence in a 24-well plate pre-coated with type I collagen, fibronectin (Sigma), and ECM Matrigel (Becton Dickinson). Proteins in serum-free medium were added to the cells. Cells were monitored by light microscopy and images were digitally photographed using a Q capture Retiga 2000R camera. Quantification of cells remaining in the well was performed by washing with PBS for three times, fixing with 4% paraformaldehyde. The cells per field (×400) were counted for three field per well (3 wells per measurement). The mean number and standard deviation (SD) were calculated.

MDA-MB231 cells = test: Cell survival assay in MDA-MB231 cells; format: cell-based, human
Procedure: Cell Culture. Human Chondrosarcoma cell line (Ch-1) was isolated from a portion of chondrosarcoma tumor. […] HUVEC cells were a gift from Dr. William Frazier (Washington University) and were cultured in M199 Earle's medium with 10 units/ml of penicillin, 5 μg/ml streptomycin and 0.25 μg/ml Fungizone supplemented with 10% FBS, 0.1 mg/ml L-glutamine, 25 mM Hepes, 16 units/ml of heparin (Sigma) and 0.1 mg/ml endothelial cell mitogen (Biochemical Technologies).
as §3

Ch-1 cells [3] = test: Migration of Ch-1 cells; format: cell-based, human; details: data not shown

T2 sequence (P06756 31-889 limits assumed): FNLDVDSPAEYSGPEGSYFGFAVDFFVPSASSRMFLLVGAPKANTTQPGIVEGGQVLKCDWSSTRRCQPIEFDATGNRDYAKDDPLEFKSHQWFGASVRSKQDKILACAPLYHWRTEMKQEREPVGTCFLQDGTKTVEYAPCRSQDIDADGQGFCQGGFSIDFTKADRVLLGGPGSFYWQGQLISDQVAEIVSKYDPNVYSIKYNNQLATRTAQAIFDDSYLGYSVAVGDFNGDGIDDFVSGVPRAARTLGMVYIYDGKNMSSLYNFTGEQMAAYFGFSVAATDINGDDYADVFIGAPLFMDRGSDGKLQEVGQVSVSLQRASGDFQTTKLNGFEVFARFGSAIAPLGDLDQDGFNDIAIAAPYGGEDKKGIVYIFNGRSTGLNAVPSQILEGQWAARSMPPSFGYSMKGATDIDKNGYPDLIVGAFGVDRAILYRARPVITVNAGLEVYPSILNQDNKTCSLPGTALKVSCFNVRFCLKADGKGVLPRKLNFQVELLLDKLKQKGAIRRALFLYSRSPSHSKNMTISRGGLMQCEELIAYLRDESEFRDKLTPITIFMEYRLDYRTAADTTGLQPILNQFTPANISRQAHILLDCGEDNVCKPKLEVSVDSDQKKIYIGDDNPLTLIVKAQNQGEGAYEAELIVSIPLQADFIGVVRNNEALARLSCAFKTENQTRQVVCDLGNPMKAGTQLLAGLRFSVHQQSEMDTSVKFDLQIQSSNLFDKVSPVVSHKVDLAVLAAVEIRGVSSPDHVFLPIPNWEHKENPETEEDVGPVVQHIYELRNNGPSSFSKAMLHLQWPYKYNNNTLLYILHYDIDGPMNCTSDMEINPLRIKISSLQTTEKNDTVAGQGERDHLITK
T2 sequence (P06756 891-1048 limits assumed): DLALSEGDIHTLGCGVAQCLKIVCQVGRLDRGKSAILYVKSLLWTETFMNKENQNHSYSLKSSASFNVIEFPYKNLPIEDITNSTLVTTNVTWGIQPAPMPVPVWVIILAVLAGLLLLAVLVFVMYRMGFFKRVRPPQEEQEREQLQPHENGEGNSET
T2 sequence (P18084 24-799): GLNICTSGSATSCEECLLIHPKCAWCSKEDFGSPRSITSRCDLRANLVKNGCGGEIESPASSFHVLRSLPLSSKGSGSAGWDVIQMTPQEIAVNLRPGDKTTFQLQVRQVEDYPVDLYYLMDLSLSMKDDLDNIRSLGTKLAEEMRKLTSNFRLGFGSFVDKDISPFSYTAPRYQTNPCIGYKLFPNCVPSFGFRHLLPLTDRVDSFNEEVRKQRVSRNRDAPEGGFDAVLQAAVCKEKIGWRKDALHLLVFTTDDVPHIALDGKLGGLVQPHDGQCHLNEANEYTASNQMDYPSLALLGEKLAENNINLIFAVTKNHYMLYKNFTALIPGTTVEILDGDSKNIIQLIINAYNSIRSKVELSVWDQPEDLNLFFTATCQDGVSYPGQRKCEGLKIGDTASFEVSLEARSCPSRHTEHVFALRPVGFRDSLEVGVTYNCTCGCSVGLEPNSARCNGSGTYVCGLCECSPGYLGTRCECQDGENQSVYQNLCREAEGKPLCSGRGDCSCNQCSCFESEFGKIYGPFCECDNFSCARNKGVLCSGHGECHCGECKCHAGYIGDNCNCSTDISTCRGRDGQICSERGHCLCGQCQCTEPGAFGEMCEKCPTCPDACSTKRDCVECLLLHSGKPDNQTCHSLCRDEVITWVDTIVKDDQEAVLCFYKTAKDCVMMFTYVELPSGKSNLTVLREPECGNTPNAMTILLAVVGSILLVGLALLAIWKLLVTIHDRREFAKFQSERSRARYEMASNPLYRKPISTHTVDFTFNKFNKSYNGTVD
T1 sequence (P06756 31-889 limits assumed): as the sequence (P06756 31-889 limits assumed) above
T1 sequence (P06756 891-1048 limits assumed): as the sequence (P06756 891-1048 limits assumed) above
T1 sequence (P05106 27-788): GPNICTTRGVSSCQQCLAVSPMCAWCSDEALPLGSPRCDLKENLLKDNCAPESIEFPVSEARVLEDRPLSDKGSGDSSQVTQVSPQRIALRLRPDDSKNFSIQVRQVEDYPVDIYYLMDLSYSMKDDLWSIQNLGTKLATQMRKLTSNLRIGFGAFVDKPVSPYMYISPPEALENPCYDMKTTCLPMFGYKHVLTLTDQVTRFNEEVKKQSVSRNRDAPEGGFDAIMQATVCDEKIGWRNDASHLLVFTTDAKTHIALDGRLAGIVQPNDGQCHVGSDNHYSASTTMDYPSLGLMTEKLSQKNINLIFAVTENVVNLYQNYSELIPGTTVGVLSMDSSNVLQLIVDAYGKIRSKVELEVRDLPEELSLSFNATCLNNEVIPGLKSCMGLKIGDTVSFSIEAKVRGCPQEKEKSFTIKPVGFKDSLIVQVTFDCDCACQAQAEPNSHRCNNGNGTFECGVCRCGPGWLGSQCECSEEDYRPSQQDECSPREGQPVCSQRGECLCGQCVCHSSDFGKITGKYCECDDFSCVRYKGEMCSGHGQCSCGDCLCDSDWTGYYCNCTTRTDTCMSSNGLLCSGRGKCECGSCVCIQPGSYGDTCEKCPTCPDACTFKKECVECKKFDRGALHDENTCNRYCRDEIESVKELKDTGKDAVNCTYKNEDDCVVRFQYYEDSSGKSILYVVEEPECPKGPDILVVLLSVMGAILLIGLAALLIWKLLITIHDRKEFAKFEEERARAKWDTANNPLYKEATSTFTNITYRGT

Question: “PIIBNP: Recombinant human Type IIB procollagen NH2-propeptide (exons 3-8, lacking exon 2), expressed as GST fusion protein” was tested. Which “adhesion to Ch-1 cells” value (Ch-1 cells [1]) did it give?
Answer: shown to adhere

Question: And the “adhesion to Ch-1 cells” value (Ch-1 cells [1]; listed as GST-PIIBNP)?
Answer: strong binding

Question: And the “binding to integrin αVβ3” value (αVβ3 integrin)?
Answer: only integrins identified; also recorded: binds

Question: What about the “binding to integrin αVβ5” value (αVβ5 integrin) of the same substance?
Answer: only integrins identified; also recorded: binds

Question: What about the cell survival (Ch-1 cells [2]) of the same substance?
Answer: 20-30%

Question: What about the “induction of cell death in Ch-1 cells” value (Ch-1 cells [2]; serum free medium, 24 hrs, type I collagen, fibronectin or Matrigel coated plates) of the same substance?
Answer: resulted in cell death in a concentration and time-dependent manner; also recorded: induced cell death

Question: And the cell survival (MDA-MB231 cells; MDA cells)?
Answer: 30%

Question: What about the cell death (MDA-MB231 cells; MDA-MB231 cells, FIG. 4L) of the same substance?
Answer: > 70%

Question: And the “inhibition of migration of Ch-1 cells” value (Ch-1 cells [3])?
Answer: can inhibit migration
